Test system: pieces of apple (Golden delicious)
Test: Sensory evaluation of coated pieces of apple during 15 days storage at 4° C.
Conditions: for Hydration: scale 1 to 10, 10 = complete hydration of the product surface; for Texture: scale 1 to 10, 10 = firm crisp texture; for Color: sensory scale 1 to 10, 10 = total absence of browning
Description: Apples of the Golden delicious variety were used. They were washed on the surface and disinfected by immersion in a sodium hypochlorite (80 ppm) solution. After disinfection, the apples were cored and cut manually into […] (quarters), which were immediately coated. […] In any of the cases, the components were dissolved in water, by constant stirring, until completely dissolved, the temperature of both the water and of the solution being held at 6° C. until their use as coating. The pieces of apple were immersed for 1 minute in each of the solutions. In the case of the control sample, the pieces of apple were immersed in cold water for the same period of time. After this, the samples were drained for 1 minute in order to remove any excess coating that might remain on the surface of the fruit. Finally, the fruit was manually packaged in plastic tubs (PET), without the use of a modified atmosphere, and stored at 4° C. for 15 days. […] The scale of evaluation was from 1 to 10, 10 being the highest mark awarded to the parameter evaluated, namely, a product with the same quality as the freshly cut fruit, and 1 being a very bad quality product (rejectable).

[1] = apple pieces, day 1 in storage at 4° C.
[2] = apple pieces, day 8 in storage at 4° C.
[3] = apple pieces, day 15 in storage at 4° C.

calcium ascorbate [Calcium ascorbate (6% p/p)]
appearance of first symptoms of dehydration (apple pieces in storage at 4° C.): from the first week of storage | maintenance of the original color of the apple (apple pieces, 15 days storage at 4° C.): throughout almost all of the period of storage | General appearance [1]: Good | Hydration [1]: 10 | Texture [1]: 10 | Color [1]: 10 | General appearance [2]: Dehydrated | Hydration [2]: 5 | Texture [2]: 8 | Color [2]: 9 | General appearance [3]: Very dehydrated, | Hydration [3]: 4 | Texture [3]: 7 | Color [3]: 8
